These results are taken from patent US6534546B1 (Chugai Seiyaku Kabushiki Kaisha, priority 1994, dated 2003).

Counter-ions that a name gives are not always drawn. Like-named read-outs stand apart in the source and are kept apart here.

The target of one test is T1, E-cNOS (Type 3) (Bos taurus, UniProt P29473).
T1 construct: the resulting supernatant was used as the crude enzyme sample of E-cNOS; endogenous in cells; host or cells: CPAE (cow pulmonary arterial endothelium cells), 1% Triton X-100 extract, 100,000 x g supernatant
T1 sequence (P29473 2-1205): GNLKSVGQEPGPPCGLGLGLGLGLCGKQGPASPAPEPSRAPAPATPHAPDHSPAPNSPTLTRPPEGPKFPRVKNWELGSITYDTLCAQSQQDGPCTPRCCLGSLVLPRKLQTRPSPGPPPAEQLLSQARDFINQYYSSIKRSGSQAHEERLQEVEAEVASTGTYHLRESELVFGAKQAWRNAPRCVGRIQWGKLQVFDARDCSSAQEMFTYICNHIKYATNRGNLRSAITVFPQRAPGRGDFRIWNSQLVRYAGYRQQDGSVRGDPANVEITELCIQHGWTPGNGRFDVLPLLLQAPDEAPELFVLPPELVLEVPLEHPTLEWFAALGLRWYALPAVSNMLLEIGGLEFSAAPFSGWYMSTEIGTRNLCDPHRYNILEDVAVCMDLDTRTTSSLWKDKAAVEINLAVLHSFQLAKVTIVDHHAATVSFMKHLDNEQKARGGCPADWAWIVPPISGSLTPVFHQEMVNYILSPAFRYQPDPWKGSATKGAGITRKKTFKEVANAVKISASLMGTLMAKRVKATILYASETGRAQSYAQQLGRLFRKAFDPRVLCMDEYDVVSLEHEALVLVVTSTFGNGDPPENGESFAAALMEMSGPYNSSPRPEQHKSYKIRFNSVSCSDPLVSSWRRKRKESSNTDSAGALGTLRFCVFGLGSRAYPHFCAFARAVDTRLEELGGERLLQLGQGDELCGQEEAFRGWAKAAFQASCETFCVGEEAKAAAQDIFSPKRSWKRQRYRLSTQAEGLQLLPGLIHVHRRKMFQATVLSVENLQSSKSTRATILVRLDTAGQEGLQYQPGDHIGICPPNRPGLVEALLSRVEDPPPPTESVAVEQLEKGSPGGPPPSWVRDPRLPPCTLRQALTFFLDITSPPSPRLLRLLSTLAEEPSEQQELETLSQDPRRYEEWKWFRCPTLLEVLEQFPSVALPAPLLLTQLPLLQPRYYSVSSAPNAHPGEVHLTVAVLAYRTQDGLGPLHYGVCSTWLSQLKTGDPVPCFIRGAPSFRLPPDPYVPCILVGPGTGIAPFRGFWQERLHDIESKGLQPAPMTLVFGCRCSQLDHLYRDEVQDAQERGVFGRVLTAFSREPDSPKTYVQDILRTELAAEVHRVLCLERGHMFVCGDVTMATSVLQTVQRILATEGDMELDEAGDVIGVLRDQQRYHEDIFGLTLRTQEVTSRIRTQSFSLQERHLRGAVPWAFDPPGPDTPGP
Nature of the test: biochemical.

For the next test, the target named is iNOS (Type 2) (Rattus norvegicus, UniProt Q06518). The experiment in a line: biochemical. The format is biochemical.
Chain of iNOS (Type 2) (Q06518 whole entry, looked up): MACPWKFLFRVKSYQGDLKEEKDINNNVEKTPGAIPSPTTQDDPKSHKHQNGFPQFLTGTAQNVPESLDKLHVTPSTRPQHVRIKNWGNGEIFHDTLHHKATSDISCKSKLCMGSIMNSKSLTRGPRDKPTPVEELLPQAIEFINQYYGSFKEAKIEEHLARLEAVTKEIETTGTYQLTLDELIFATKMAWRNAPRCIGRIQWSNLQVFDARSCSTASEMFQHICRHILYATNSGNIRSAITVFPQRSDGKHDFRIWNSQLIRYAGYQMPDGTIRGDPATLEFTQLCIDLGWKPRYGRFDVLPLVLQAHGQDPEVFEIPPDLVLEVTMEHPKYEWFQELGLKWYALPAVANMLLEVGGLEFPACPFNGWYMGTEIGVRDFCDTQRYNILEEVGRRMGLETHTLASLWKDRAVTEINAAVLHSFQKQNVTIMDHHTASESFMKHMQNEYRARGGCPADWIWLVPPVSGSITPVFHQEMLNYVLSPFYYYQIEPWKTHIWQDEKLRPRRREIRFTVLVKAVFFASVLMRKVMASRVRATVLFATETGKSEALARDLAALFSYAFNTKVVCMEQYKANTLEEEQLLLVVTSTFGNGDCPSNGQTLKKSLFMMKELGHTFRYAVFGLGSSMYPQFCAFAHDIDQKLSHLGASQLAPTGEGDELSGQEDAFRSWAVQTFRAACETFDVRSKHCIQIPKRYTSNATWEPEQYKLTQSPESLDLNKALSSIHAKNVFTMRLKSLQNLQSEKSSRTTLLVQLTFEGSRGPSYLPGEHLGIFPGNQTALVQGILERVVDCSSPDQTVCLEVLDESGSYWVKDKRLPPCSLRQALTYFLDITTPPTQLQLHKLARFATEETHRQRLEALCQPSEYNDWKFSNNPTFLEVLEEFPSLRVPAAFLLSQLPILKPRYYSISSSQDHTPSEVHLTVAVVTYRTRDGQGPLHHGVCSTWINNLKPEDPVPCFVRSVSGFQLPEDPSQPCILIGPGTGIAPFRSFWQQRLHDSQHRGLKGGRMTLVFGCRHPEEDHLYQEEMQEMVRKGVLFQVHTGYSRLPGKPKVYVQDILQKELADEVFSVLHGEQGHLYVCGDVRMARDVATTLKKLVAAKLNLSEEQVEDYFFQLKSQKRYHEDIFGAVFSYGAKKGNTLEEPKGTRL
The mark [1] stands for this setting: mean of one to four independent experiments, crude enzyme, 100 nM L-[3H]arginine, read-out: IC50 value, E-cNOS (Type 3).
Setting [2] is: mean of one to four independent experiments, crude enzyme, 100 nM L-[3H]arginine, without CaCl2 and calmodulin, read-out: IC50 value, iNOS (Type 2).
The mark [3] stands for this setting: conclusion from Tables 49, 50 and 51.
Setting [4] is: mean of one to four independent experiments, LPS-treated rat lung crude enzyme, read-out: IC50 value, iNOS (Type 2).

Experimental for E-cNOS (Type 3): The crude enzyme sample of E-cNOS was prepared by the following procedure. A cow pulmonary arterial endothielium cell (CPAE) was cultured in a MEM medium containing 20% FBS. […] A suitable amount of Ca- and Mg-free phosphate buffer (pH 7.4) was added to the precipitating cells and they were centrifuged at 1,000 rpm for 10 min. The same step was repeated to wash the cells which, upon addition of 50 mM Tris-HCl (pH 7.4) containing 1% Triton X-100 and 1 mM DTT, were left to stand in ice for 1 h. Subsequently, the mixture was homogenized for 3 min and kept in ice for 30 min with occasional stirring. Finally, the mixture was centrifuged at 100,000×g for 60 min and the resulting supernatant was used as the crude enzyme sample of E-cNOS.
The reaction was started by addition of L-[^3H]arginine and following incubation at 37° C. for 10 min, the reaction was terminated by addition of 2 ml of 50 mM Tris-HCl (pH 5.5) containing 1 mM EDTA and placing the mixture on ice. The reaction solution was passed through a cation-exchange resin column (Dowex AG50WX-8, Na^+ form, 3.2 ml) to separate the reaction product L-[^3H]citrulline from the unreacted residual substrate L-[^3H]arginine. The eluate was combined with another eluate resulting from the passage of a given amount of distilled water through the column and put into a minivial for recovery of L-[^3H]citrulline. Thereafter, a scintillation fluid was added and the contained radioactivity was measured with a liquid scintillation counter to determine the amount of L-[^3H]citrulline.
The activity of N-cNOS or E-cNOS was determined by subtracting the activity as detected in the absence of CaCl2 and calmodulin from the activity as detected in the presence of CaCl2 and calmodulin. […] The protein concentration of each crude enzyme sample was determined with a micro-assay kit of Biorad Co. Each experiment was conducted in a duplicate.

On to `CSC(=N)Nc1cccc(C(C)(C)N)c1.Cl.Cl` [Example 5, N-(1-methyl-1-(3-(S-methylisothioureido)phenyl)ethyl)amine dihydrochloride], for which the results for the half-maximal inhibitory concentration (IC50) at E-cNOS (Type 3) (setting [1]) and at iNOS (Type 2) (setting [2]) were 429 nM and 449 nM, respectively. Besides, the “Ratio of IC50 values E-cNOS/iNOS” value at iNOS (Type 2) (index of selectivity) stood at 1.0.

Turning to `CC(C)(N)c1cccc(NC(N)=N[N+](=O)[O-])c1.Cl` [Example 7, N-(1-methyl-1-(3-(N′-nitroguanidino)phenyl)ethyl)amine hydrochloride], the IC50 on E-cNOS (Type 3) (setting [1]) was 42.4 nM; at iNOS (Type 2) (setting [2]), 2120 nM. Moreover, the “Ratio of IC50 values E-cNOS/iNOS” value on iNOS (Type 2) was 0.02.

Take `CSC(=N)Nc1cccc(C(C)N)c1.Cl.Cl` (stereo not shown) [Example 12, N-(1-(3-(S-methylisothioureido)phenyl)ethyl)amine dihydrochloride]: the IC50 was 538 nM on E-cNOS (Type 3) (setting [1]) and 239 nM at iNOS (Type 2) (setting [2]). Further, on iNOS (Type 2), the “Ratio of IC50 values E-cNOS/iNOS” value turned out to be 2.3. Moreover, the “iNOS inhibitory potency compared with the existing NOS inhibitors (L-MIN)” value on iNOS (Type 2) (setting [3]) is reported as “more potent in inhibiting iNOS than L-MIN”.

With `CC(N)c1cccc(NC(N)=N[N+](=O)[O-])c1` (stereo not shown) [Example 14, N-(1-(3-(N′-nitroguanidino)phenyl)ethyl)amine hydrochloride], the 50% inhibitory concentration (IC50) on iNOS (Type 2) (setting [2]) was 3680 nM.

Turning to `CCC(N)c1cccc(NC(=N)SC)c1` (stereo not shown) [Example 19, N-(1-(3-(S-methylisothioureido)phenyl)propyl)amine dihydrochloride], at iNOS (Type 2) (setting [2]), the half-inhibitory concentration (IC50) is 2400 nM.

As for `CCC(N)c1cccc(NC(N)=N[N+](=O)[O-])c1` (stereo not shown) [Example 21, N-(1-(3-(N′-nitroguanidino)phenyl)propyl)amine hydrochloride], the IC50 at iNOS (Type 2) (setting [2]) was found to be 2610 nM.

As for `CSC(=N)Nc1cccc(CN)c1.Cl.Cl` [Example 26, N-(3-(S-methylisothioureido)phenylmethyl)amine dihydrochloride], the half-inhibitory concentration (IC50) worked out at 431 nM on E-cNOS (Type 3) (setting [1]) and 1350 nM at iNOS (Type 2) (setting [2]). In addition, the “Ratio of IC50 values E-cNOS/iNOS” value at iNOS (Type 2) (index of selectivity) is 0.3.

On to `CCSC(=N)Nc1cccc(CN)c1.Cl.Cl` [Example 28, N-(3-(S-ethylisothioureido)phenylmethyl)amine dihydrochloride], for which the “iNOS inhibitory potency compared with the existing NOS inhibitors (L-MIN)” value on iNOS (Type 2) (setting [3]) is reported as “more potent in inhibiting iNOS than L-MIN”. Further, the half-inhibitory concentration (IC50) on iNOS (Type 2) (setting [2]) turned out to be 32.7 nM.

In the case of `N=C(Nc1cccc(CN)c1)N[N+](=O)[O-]` [Example 34, N-(3-(N′-nitroguanidino)phenylmethyl)amine], the IC50 at iNOS (Type 2) (setting [4]) was determined as 6760 nM.

Consider `CN(C)Cc1cccc(NC(N)=N[N+](=O)[O-])c1` [Example 39, N-(3-(N′-nitroguanidino)phenylmethyl)dimethylamine acetate], for which the IC50 on iNOS (Type 2) (setting [2]) worked out at 22900 nM.

Take `CSC(=N)Nc1ccc(CCN)cc1.Cl.Cl` [Example 52, N-(4-(S-methylisothioureido)phenylethyl)amine dihydrochloride]: the figures for the IC50 on E-cNOS (Type 3) (setting [1]) and at iNOS (Type 2) (setting [2]) were 483 nM and 2760 nM, respectively. The “Ratio of IC50 values E-cNOS/iNOS” value at iNOS (Type 2) (index of selectivity) stood at 0.2.

`N=C(Nc1ccc(CCN)cc1)N[N+](=O)[O-]` [Example 54, N-(4-(N′-nitroguanidino)phenylethyl)amine]: the IC50 at iNOS (Type 2) (setting [2]) is 5020 nM.

Take `CSC(=N)Nc1cccc(CCN)c1` [Example 60, N-(3-(S-methylisothioureido)phenylethyl)amine dihydrochloride]: the IC50 on iNOS (Type 2) (setting [2]) worked out at 6750 nM.

`CCSC(=N)Nc1ccc(CCN)cc1.Cl.Cl` [Example 104, N-(4-(S-ethylisothioureido)phenylethyl)amine dihydrochloride]: the values for the IC50 on E-cNOS (Type 3) (setting [1]) and at iNOS (Type 2) (setting [2]) were 118 nM and 86.5 nM, respectively. In addition, the “iNOS inhibitory potency compared with the existing NOS inhibitors (L-MIN)” value on iNOS (Type 2) (setting [3]) was “more potent in inhibiting iNOS than L-MIN”. Besides, at iNOS (Type 2) (index of selectivity), the “Ratio of IC50 values E-cNOS/iNOS” value was 1.4.

Regarding `CCSC(=N)Nc1ccc(OC)c(CN)c1` [Example 122, N-(5-(S-ethylisothioureido)-2-methoxyphenylmethyl)amine dihydrochloride], the IC50 amounted to 3530 nM on E-cNOS (Type 3) (setting [1]) and 24600 nM at iNOS (Type 2) (setting [2]).

In the case of `CCSC(=N)Nc1cccc(CN)c1C.Cl.Cl` [Example 131, N-(3-(S-ethylisothioureido)-2-methylphenylmethyl)amine dihydrochloride], on E-cNOS (Type 3) (setting [1]), the IC50 was 481 nM. On iNOS (Type 2), the “Ratio of IC50 values E-cNOS/iNOS” value is given as 6.2 and the “selectivity for iNOS compared to E-cNOS, compared with the existing NOS inhibitors (L-NIO)” value is given as “more selective inhibitory effect on iNOS than L-NIO”. Also, on iNOS (Type 2) (setting [3]), the “iNOS inhibitory potency compared with the existing NOS inhibitors (L-MIN)” value is “more potent in inhibiting iNOS than L-MIN”. Moreover, the IC50 on iNOS (Type 2) (setting [2]) amounted to 78.2 nM.

Turning to `CCN=C(N)Nc1ccc(N(C)C)c(CN)c1.Cl.Cl.Cl` [Example 267, N-(2-dimethylamino-5-(N′-ethylguanidino)phenylmethyl)amine trihydrochloride], the results for the half-inhibitory concentration (IC50) on E-cNOS (Type 3) (setting [1]) and at iNOS (Type 2) (setting [2]) were 50100 nM and 4790 nM, respectively. Moreover, the “selectivity for iNOS compared to E-cNOS, compared with the existing NOS inhibitors (L-NIO)” value at iNOS (Type 2) (setting [3]) is reported as “more selective inhibitory effect on iNOS than L-NIO”. Also, at iNOS (Type 2) (index of selectivity), the “Ratio of IC50 values E-cNOS/iNOS” value is on record as 10.5.

Turning to `CCSC(=N)Nc1ccc(N(C)C)c(CN)c1.Cl.Cl.Cl` [Example 270, N-(2-dimethylamino-5-(S-ethylisothioureido)phenylmethyl)amine trihydrochloride], the IC50 came out at 3590 nM on E-cNOS (Type 3) (setting [1]) and 4530 nM at iNOS (Type 2) (setting [2]). Further, on iNOS (Type 2) (index of selectivity), the “Ratio of IC50 values E-cNOS/iNOS” value turned out to be 0.8.

`CCOc1ccc(NC(=N)SCC)cc1CN.Cl.Cl` [Example 324, N-(2-ethoxy-5-(S-ethylisothioureido)phenylmethyl) amine dihydrochloride]: the half-maximal inhibitory concentration (IC50) is 2310 nM on E-cNOS (Type 3) (setting [1]) and 8730 nM on iNOS (Type 2) (setting [2]). The “Ratio of IC50 values E-cNOS/iNOS” value at iNOS (Type 2) (index of selectivity) was determined as 0.3.

Regarding `CCSC(=N)Nc1ccc(OCc2ccccc2)c(CN)c1.Cl.Cl` [Example 337, N-(2-benzyloxy-5-(S-ethylisothioureido)phenylmethyl)amine dihydrochloride], the half-maximal inhibitory concentration (IC50) at E-cNOS (Type 3) (setting [1]) amounted to 5200 nM. For the same molecule, on iNOS (Type 2) (index of selectivity), the “Ratio of IC50 values E-cNOS/iNOS” value is reported as 0.3.

As for `CCSC(=N)Nc1ccc(OC)c(C(C)(C)N)c1` [Example 350, N-(1-(5-(S-ethylisothioureido)-2-methoxyphenyl)-1-methylethyl)amine], the 50% inhibitory concentration (IC50) was found to be 15800 nM at E-cNOS (Type 3) (setting [1]) and 58400 nM at iNOS (Type 2) (setting [2]). For the same molecule, the “Ratio of IC50 values E-cNOS/iNOS” value at iNOS (Type 2) (index of selectivity) is given as 0.3.

Turning to `CCSC(=N)Nc1cccc(CNC)c1C` [Example 411, N-(3-(S-ethylisothioureido)-2-methylphenylmethyl)methylamine dihydrochloride], the concentration for half-maximal inhibition (IC50) on E-cNOS (Type 3) (setting [1]) came out at 341 nM.

For `CCSC(=N)Nc1ccc(NCc2ccccc2)c(CN)c1` [Example 438, N-(2-benzylamino-5-(S-ethylisothioureido)phenylmethyl)amine trihydrochloride], the IC50 at E-cNOS (Type 3) (setting [1]) is 6950 nM.

Take `CCSC(=N)Nc1ccc(NC)c(CN)c1.Cl.Cl.Cl` [Example 452, N-(5-(S-ethylisothioureido)-2-methylaminophenylmethyl)amine trihydrochloride]: the values for the concentration for half-maximal inhibition (IC50) on E-cNOS (Type 3) (setting [1]) and on iNOS (Type 2) (setting [2]) were 3630 nM and 6960 nM, respectively. Also, at iNOS (Type 2), the “Ratio of IC50 values E-cNOS/iNOS” value is on record as 0.5.

Consider `CCNc1ccc(NC(=N)SCC)cc1CN(C(=O)OC(C)(C)C)C(=O)OC(C)(C)C` [Example 458, N-(2-ethylamino-5-(S-ethylisothioureido)phenylmethyl)iminodicarboxylic acid di-t-butyl ester], for which, on E-cNOS (Type 3) (setting [1]), the IC50 came out at 4100 nM.

`CCSC(=N)Nc1ccc(CCN)c(OC)c1` [Example 482, N-(2-(4-(S-ethylisothioureido)-2-methoxyphenyl)ethyl)amine dihydrochloride] registered an IC50 against E-cNOS (Type 3) of 1990 nM.

With `CCN=C(N)Nc1ccc(CCN)cc1` [Example 528, N-(2-(4-(N′-ethylguanidino)phenyl)ethyl)amine dihydrochloride], the concentration for half-maximal inhibition (IC50) at E-cNOS (Type 3) (setting [1]) was 436 nM.

Turning to `CCN=C(N)Nc1cccc(CN)c1C` [Example 533, N-(3-(N′-ethylguanidino)-2-methylphenylmethyl)amine dihydrochloride], the half-inhibitory concentration (IC50) on E-cNOS (Type 3) (setting [1]) was 3770 nM.

Take `CCN=C(N)Nc1cccc(CN)c1Cl.Cl.Cl` [Example 538, N-(2-chloro-3-(N′-ethylguanidino)phenylmethyl)amine dihydrochloride]: the IC50 on E-cNOS (Type 3) (setting [1]) was 2540 nM; at iNOS (Type 2) (setting [2]), 306 nM. The “Ratio of IC50 values E-cNOS/iNOS” value at iNOS (Type 2) is 8.3. Further, on iNOS (Type 2), the “selectivity for iNOS compared to E-cNOS, compared with the existing NOS inhibitors (L-NIO)” value was “more selective inhibitory effect on iNOS than L-NIO”.

As for `CCN=C(N)Nc1cccc(CCN)c1` [Example 543, N-(3-(N′-ethylguanidino)phenylethyl)amine dihydrochloride], the IC50 at E-cNOS (Type 3) (setting [1]) stood at 3120 nM.

As for `N/N=C(\N)NCCC[C@H](N)C(=O)O` [L-AA, N^G-amino-L-arginine, reference compound], the IC50 on E-cNOS (Type 3) amounted to 167 nM; at iNOS (Type 2), 1280 nM.

Turning to `N=C(NCCC[C@H](N)C(=O)O)NC1CC1` [L-CPA, N^G-cyclpropyl-L-arginine, reference compound], the IC50 at E-cNOS (Type 3) (setting [1]) worked out at 987 nM.

`CCSC(N)=NCCC[C@H](N)C(=O)O` [L-EIN, S-ethyl-L-thiocitrulline, reference compound]: the IC50 at E-cNOS (Type 3) (setting [1]) was determined as 732 nM; at iNOS (Type 2) (setting [2]) it was 6760 nM.

In the case of `CC(=N)NCCC[C@H](N)C(=O)O` [L-NIO, NG-iminoethyl-L-ornithine, reference compound], the concentration for half-maximal inhibition (IC50) amounted to 1230 nM on E-cNOS (Type 3) (mean of one to four independent experiments, CPAE cell crude enzyme, read-out: IC50 value, E-cNOS (Type 3)) and 458 nM on iNOS (Type 2) (setting [4]).

As to `CNC(=N)NCCC[C@H](N)C(=O)O` [L-NMMA, N^G-monomethyl-L-arginine, reference compound], on iNOS (Type 2) (read-out: IC50 value, iNOS (Type 2)), the 50% inhibitory concentration (IC50) was 3480 nM.

A word on the IC50: it is the concentration needed to halve the response being measured.
